The results in this text go back to patent publication US20020137929A1, “1 - (3-heterocyclylphenyl) isothiourea, -isourea, -guanidine and -amidine herbicidal agents” (Intellectual Property Department, BASF Aktiengesellschaft, priority 1998, published 2002).

Experiment [1] concerns GLXMAW (Soybean, Williams). In words: Preemergence herbicidal evaluation. The settings on record: rated 4-5 weeks after treatment, rating scale 0-9. It is filed as in vivo, Glycine max, (L.) Merr. cv Williams. The method in brief:
(§1)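 Visual 0-9 rating vs control (stand, vigor, malformation, size, chlorosis, overall appearance), scored 4-5 wk after spraying. Seeded soil cups were treated preemergence with compound in aqueous acetone, ~0.0156-0.500 kg/ha equivalent.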

For experiment [2], the system named is IPOHE (Morningglory, Ivyleaf). As to the kind of experiment: Postemergence herbicidal evaluation. It is filed as in vivo, Ipomoea hederacea. The settings on record: postemergence. Put shortly: (§2)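 Young plants, roughly two weeks from seeding, receive the active ingredient as a sprayed dispersion (acetone/water 50/50, 0.5% TWEEN 20) at 40 psi. Doses span about 0.0156 to 0.500 kg/ha. A visual score from 0 to 9 compares treated with control plants four to five weeks on.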

For another experiment, the system named is GALAP (Galium). As to the kind of experiment: Preemergence herbicidal evaluation. The experiment is classed as in vivo, Galium aparine. The settings on record: rated 4-5 weeks after treatment, rating scale 0-9. Put shortly: as §1
Another experiment has as its system ECHCG (Barnyardgrass). In words: Preemergence herbicidal evaluation. It is filed as in vivo, Echinochloa crus-galli. The note with it: rated 4-5 weeks after treatment, rating scale 0-9. The method in brief:
as §1

The subject of experiment [3] is CHEAL (Lambsquarters, Common). In words: Postemergence herbicidal evaluation. It is filed as in vivo, Chenopodium album. The settings on record: postemergence. Put shortly: as §2

As to `Cn1c(C(F)(F)F)cc(=O)n(-c2cc(N=C3SCC(=O)N3Cc3cccc(C(F)(F)F)c3)c(Cl)cc2F)c1=O` [Compound 142, 3-{4-Chloro-2-fluoro-5-{{3-[m-(trifluoromethyl)benzyl]-4-oxo-2-thiazolidinylidene}-amino}phenyl}-1-methyl-6-(trifluoromethyl)-2,4(1H,3H)-pyrimidinedione], the “Preemergence herbicidal rating GLXMAW” value in experiment [1] (rate 0.0156 kg/ha) was found to be 1.0; in experiment [1] (rate 0.0313 kg/ha) it was 0.0; in experiment [1] (rate 0.0625 kg/ha), 0.0; in experiment [1] (rate 0.1250 kg/ha) it was 0.0; in experiment [1] (rate 0.2500 kg/ha) it was 1.0. Besides, the “herbicidal rating IPOHE” value in experiment [2] (rate 0.0156 kg/ha) was determined as 7.0; in experiment [2] (rate 0.0313 kg/ha), 7.0; in experiment [2] (rate 0.0625 kg/ha), 9.0. In addition, the “Preemergence herbicidal rating GALAP” value in the experiment with GALAP (Galium) (rate 0.0156 kg/ha) came to 0.0; with GALAP (Galium) (rate 0.0313 kg/ha) it was 0.0; with GALAP (Galium) (rate 0.0625 kg/ha), 0.0; with GALAP (Galium) (rate 0.1250 kg/ha), 0.0; in the experiment with GALAP (Galium) (rate 0.2500 kg/ha), 9.0. Further, the “Preemergence herbicidal rating ECHCG” value in the experiment with ECHCG (Barnyardgrass) (rate 0.0156 kg/ha), with ECHCG (Barnyardgrass) (rate 0.0313 kg/ha), in the experiment on ECHCG (Barnyardgrass) (rate 0.0625 kg/ha), in the experiment on ECHCG (Barnyardgrass) (rate 0.1250 kg/ha) and in the experiment on ECHCG (Barnyardgrass) (rate 0.2500 kg/ha) was 0.0 each time. The “herbicidal rating CHEAL” value in experiment [3] (rate 0.0156 kg/ha) amounted to 4.0; in experiment [3] (rate 0.0313 kg/ha), 9.0; in experiment [3] (rate 0.0625 kg/ha) it was 9.0.
With `Cn1c(C(F)(F)F)cc(=O)n(-c2cc(N=C3SCC(=O)N3Cc3ccccc3Cl)c(Cl)cc2F)c1=O` [Compound 143], the “Preemergence herbicidal rating GLXMAW” value in experiment [1] (rate 0.0313 kg/ha) is reported as 0.0; in experiment [1] (rate 0.0625 kg/ha) it was 0.0; in experiment [1] (rate 0.1250 kg/ha), 0.0; in experiment [1] (rate 0.2500 kg/ha), 1.0. For the same molecule, the “herbicidal rating IPOHE” value in experiment [2] (rate 0.0156 kg/ha), in experiment [2] (rate 0.0313 kg/ha) and in experiment [2] (rate 0.0625 kg/ha) was 9.0 throughout. For the same molecule, the “Preemergence herbicidal rating GALAP” value with GALAP (Galium) (rate 0.0313 kg/ha) is recorded as 0.0; with GALAP (Galium) (rate 0.0625 kg/ha) it was 0.0; in the experiment with GALAP (Galium) (rate 0.1250 kg/ha), 1.0; with GALAP (Galium) (rate 0.2500 kg/ha) it was 0.0. Moreover, the “Preemergence herbicidal rating ECHCG” value in the experiment on ECHCG (Barnyardgrass) (rate 0.0313 kg/ha) is given as 0.0; with ECHCG (Barnyardgrass) (rate 0.0625 kg/ha) it was 0.0; with ECHCG (Barnyardgrass) (rate 0.1250 kg/ha), 1.0; with ECHCG (Barnyardgrass) (rate 0.2500 kg/ha), 1.0. The entries for the “herbicidal rating CHEAL” value in experiment [3] (rate 0.0156 kg/ha), in experiment [3] (rate 0.0313 kg/ha) and in experiment [3] (rate 0.0625 kg/ha) were 2.0, 6.0 and 6.0, respectively.
`Cn1c(C(F)(F)F)cc(=O)n(-c2cc(N=C3SCC(=O)N3Cc3ccc(Cl)cc3)c(Cl)cc2F)c1=O` [Compound 145, 3-{4-Chloro-5-{[3-(p-chlorobenzyl)-4-oxo-2-thiazolidinylidene]amino}-2-fluorophenyl}-1-methyl-6-(trifluoromethyl)-2,4(1H,3H)-pyrimidinedione]: the “Preemergence herbicidal rating GLXMAW” value in experiment [1] (rate 0.0156 kg/ha) turned out to be 0.0; in experiment [1] (rate 0.0313 kg/ha), 0.0; in experiment [1] (rate 0.0625 kg/ha) it was 0.0; in experiment [1] (rate 0.1250 kg/ha), 1.0; in experiment [1] (rate 0.2500 kg/ha) it was 2.0. Further, the “herbicidal rating IPOHE” value in experiment [2] (rate 0.0156 kg/ha), in experiment [2] (rate 0.0313 kg/ha) and in experiment [2] (rate 0.0625 kg/ha) was 9.0 throughout. Moreover, the “Preemergence herbicidal rating GALAP” value is on record as 0.0 in the experiment with GALAP (Galium) (rate 0.0156 kg/ha); 0.0 in the experiment with GALAP (Galium) (rate 0.0313 kg/ha); 0.0 with GALAP (Galium) (rate 0.0625 kg/ha); 1.0 with GALAP (Galium) (rate 0.1250 kg/ha); 3.0 in the experiment on GALAP (Galium) (rate 0.2500 kg/ha). The “Preemergence herbicidal rating ECHCG” value in the experiment on ECHCG (Barnyardgrass) (rate 0.0156 kg/ha) is 0.0; in the experiment on ECHCG (Barnyardgrass) (rate 0.0313 kg/ha) it was 0.0; in the experiment with ECHCG (Barnyardgrass) (rate 0.0625 kg/ha), 1.0; in the experiment with ECHCG (Barnyardgrass) (rate 0.1250 kg/ha), 1.0; in the experiment with ECHCG (Barnyardgrass) (rate 0.2500 kg/ha), 1.0. Besides, the “herbicidal rating CHEAL” value is 5.0 in experiment [3] (rate 0.0156 kg/ha), 9.0 in experiment [3] (rate 0.0313 kg/ha) and 9.0 in experiment [3] (rate 0.0625 kg/ha).
As to `Cc1ccc(CN2C(=O)CSC2=Nc2cc(-n3c(=O)cc(C(F)(F)F)n(C)c3=O)c(F)cc2Cl)cc1C` [Compound 147, 3-{4-Chloro-5-{[3-(3,4-dimethylbenzyl)-4-oxo-2-thiazolidinylidene]amino}-2-fluorophenyl}-1-methyl-6-(trifluoromethyl)-2,4(1H,3H)-pyrimidinedione], the “Preemergence herbicidal rating GLXMAW” value in experiment [1] (rate 0.0156 kg/ha) came out at 1.0; in experiment [1] (rate 0.0313 kg/ha), 0.0; in experiment [1] (rate 0.0625 kg/ha), 0.0; in experiment [1] (rate 0.1250 kg/ha) it was 0.0; in experiment [1] (rate 0.2500 kg/ha) it was 1.0. For the same molecule, the “herbicidal rating IPOHE” value in experiment [2] (rate 0.0156 kg/ha), in experiment [2] (rate 0.0313 kg/ha) and in experiment [2] (rate 0.0625 kg/ha) was 9.0 each time. Besides, the “Preemergence herbicidal rating GALAP” value in the experiment with GALAP (Galium) (rate 0.0156 kg/ha) is 0.0; in the experiment on GALAP (Galium) (rate 0.0313 kg/ha), 0.0; in the experiment with GALAP (Galium) (rate 0.0625 kg/ha), 0.0; in the experiment with GALAP (Galium) (rate 0.1250 kg/ha) it was 1.0; in the experiment on GALAP (Galium) (rate 0.2500 kg/ha), 1.0. In addition, the “Preemergence herbicidal rating ECHCG” value with ECHCG (Barnyardgrass) (rate 0.0156 kg/ha), in the experiment with ECHCG (Barnyardgrass) (rate 0.0313 kg/ha), with ECHCG (Barnyardgrass) (rate 0.0625 kg/ha), in the experiment on ECHCG (Barnyardgrass) (rate 0.1250 kg/ha) and in the experiment with ECHCG (Barnyardgrass) (rate 0.2500 kg/ha) was 0.0 each time. Moreover, the “herbicidal rating CHEAL” value in experiment [3] (rate 0.0156 kg/ha) worked out at 5.0; in experiment [3] (rate 0.0313 kg/ha) it was 6.0; in experiment [3] (rate 0.0625 kg/ha), 9.0.
As for `Cn1c(C(F)(F)F)cc(=O)n(-c2cc(N=C3SCC(=O)N3C3CC3)c(Cl)cc2F)c1=O` [Compound 152, 3-{4-Chloro-5-[(3-cyclopropyl-4-oxo-2-thiazolidinylidene)amino]-2-fluorophenyl}-1-methyl-6-(trifluoromethyl)-2,4(1H,3H)-pyrimidinedione], the “Preemergence herbicidal rating GLXMAW” value in experiment [1] (rate 0.0313 kg/ha) is reported as 0.0; in experiment [1] (rate 0.0625 kg/ha) it was 2.0; in experiment [1] (rate 0.1250 kg/ha) it was 2.0; in experiment [1] (rate 0.2500 kg/ha), 2.0. For the same molecule, the entries for the “herbicidal rating IPOHE” value in experiment [2] (rate 0.0156 kg/ha), in experiment [2] (rate 0.0313 kg/ha) and in experiment [2] (rate 0.0625 kg/ha) were 7.0, 9.0 and 9.0, respectively. The “Preemergence herbicidal rating GALAP” value in the experiment with GALAP (Galium) (rate 0.0313 kg/ha) was determined as 0.0; with GALAP (Galium) (rate 0.0625 kg/ha), 0.0; in the experiment on GALAP (Galium) (rate 0.1250 kg/ha), 1.0; with GALAP (Galium) (rate 0.2500 kg/ha), 6.0. Besides, the “Preemergence herbicidal rating ECHCG” value is 0.0 in the experiment on ECHCG (Barnyardgrass) (rate 0.0313 kg/ha), 0.0 in the experiment with ECHCG (Barnyardgrass) (rate 0.0625 kg/ha), 1.0 in the experiment with ECHCG (Barnyardgrass) (rate 0.1250 kg/ha) and 1.0 in the experiment on ECHCG (Barnyardgrass) (rate 0.2500 kg/ha). For the same molecule, the “herbicidal rating CHEAL” value amounted to 0.0 in experiment [3] (rate 0.0156 kg/ha), 4.0 in experiment [3] (rate 0.0313 kg/ha) and 9.0 in experiment [3] (rate 0.0625 kg/ha).
For `COCCN1C(=O)CSC1=Nc1cc(-n2c(=O)cc(C(F)(F)F)n(C)c2=O)c(F)cc1Cl` [Compound 155, 3-{4-Chloro-2-fluoro-5-{[3-(2-methoxyethyl)-4-oxo-2-thiazolidinylidene]amino}phenyl}-1-methyl-6-(trifluoromethyl)-2,4(1H,3H)-pyrimidinedione], the “Preemergence herbicidal rating GLXMAW” value in experiment [1] (rate 0.0625 kg/ha) worked out at 0.0; in experiment [1] (rate 0.1250 kg/ha), 0.0; in experiment [1] (rate 0.2500 kg/ha), 4.0. Also, the figures for the “herbicidal rating IPOHE” value in experiment [2] (rate 0.0156 kg/ha), in experiment [2] (rate 0.0313 kg/ha) and in experiment [2] (rate 0.0625 kg/ha) were 2.0, 4.0 and 9.0, respectively. The “Preemergence herbicidal rating GALAP” value with GALAP (Galium) (rate 0.0625 kg/ha), in the experiment with GALAP (Galium) (rate 0.1250 kg/ha) and in the experiment with GALAP (Galium) (rate 0.2500 kg/ha) was 4.0 each time. The “Preemergence herbicidal rating ECHCG” value with ECHCG (Barnyardgrass) (rate 0.0625 kg/ha), with ECHCG (Barnyardgrass) (rate 0.1250 kg/ha) and in the experiment on ECHCG (Barnyardgrass) (rate 0.2500 kg/ha) was 0.0 in each case. In addition, the “herbicidal rating CHEAL” value in experiment [3] (rate 0.0156 kg/ha), in experiment [3] (rate 0.0313 kg/ha) and in experiment [3] (rate 0.0625 kg/ha) was 0.0 each time.
